What was measured:
Test in all cases: relative viability (nuclei count vs DMSO), 5 days (fraction); higher = more cells survive
AGI-6780 + OSI-027 = compound: O=C(Nc1cccc(C(F)(F)F)c1)Nc1cc(S(=O)(=O)NC2CC2)ccc1-c1ccsc1 [AGI-6780] + COc1cccc2cc(-c3nc([C@H]4CC[C@H](C(=O)O)CC4)n4ncnc(N)c34)[nH]c12 [OSI-027] (partner 0.5 µM)
Outline: (§1)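 Dosing by pin tool came one day after lung cancer cell lines were seeded in 1536-well plates, using either one drug or a fixed anchor-drug dose plus five library-drug doses (not always all listed) in √10 steps. After 5 days, nuclei were counted on 4× images. Relative viability is treated-well nuclei count divided by vehicle-well nuclei count, and values are medians of duplicate plates.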

AGI-6780 + Lapatinib = compound: O=C(Nc1cccc(C(F)(F)F)c1)Nc1cc(S(=O)(=O)NC2CC2)ccc1-c1ccsc1 [AGI-6780] + CS(=O)(=O)CCNCc1ccc(-c2ccc3ncnc(Nc4ccc(OCc5cccc(F)c5)c(Cl)c4)c3c2)o1 [Lapatinib] (partner 2 µM)
Outline: as §1

AGI-6780 + Linsitinib = compound: O=C(Nc1cccc(C(F)(F)F)c1)Nc1cc(S(=O)(=O)NC2CC2)ccc1-c1ccsc1 [AGI-6780] + C[C@]1(O)C[C@@H](c2nc(-c3ccc4ccc(-c5ccccc5)nc4c3)c3c(N)nccn32)C1 [Linsitinib] (partner 1 µM)
Outline: as §1

AGI-6780 + Alpelisib = compound: O=C(Nc1cccc(C(F)(F)F)c1)Nc1cc(S(=O)(=O)NC2CC2)ccc1-c1ccsc1 [AGI-6780] + Cc1nc(NC(=O)N2CCC[C@H]2C(N)=O)sc1-c1ccnc(C(C)(C)C(F)(F)F)c1 [Alpelisib] (partner 2 µM)
Outline: as §1

Cell Line | relative viability (AGI-6780 + OSI-027; first compound 0.08 µM) | relative viability (AGI-6780 + OSI-027; first compound 0.253 µM) | relative viability (AGI-6780 + OSI-027; first compound 0.8 µM) | relative viability (AGI-6780 + OSI-027; first compound 2.53 µM) | relative viability (AGI-6780 + OSI-027; first compound 8 µM) | relative viability (AGI-6780 + Lapatinib; first compound 0.08 µM) | relative viability (AGI-6780 + Lapatinib; first compound 0.253 µM) | relative viability (AGI-6780 + Lapatinib; first compound 0.8 µM) | relative viability (AGI-6780 + Lapatinib; first compound 2.53 µM) | relative viability (AGI-6780 + Lapatinib; first compound 8 µM) | relative viability (AGI-6780 + Linsitinib; first compound 0.08 µM) | relative viability (AGI-6780 + Linsitinib; first compound 0.253 µM) | relative viability (AGI-6780 + Linsitinib; first compound 0.8 µM) | relative viability (AGI-6780 + Linsitinib; first compound 2.53 µM) | relative viability (AGI-6780 + Linsitinib; first compound 8 µM) | relative viability (AGI-6780 + Alpelisib; first compound 0.08 µM) | relative viability (AGI-6780 + Alpelisib; first compound 0.253 µM) | relative viability (AGI-6780 + Alpelisib; first compound 0.8 µM) | relative viability (AGI-6780 + Alpelisib; first compound 2.53 µM) | relative viability (AGI-6780 + Alpelisib; first compound 8 µM)
NCI-H322M | 0.557 | 0.562 | 0.645 | 0.544 | 0.64 | 0.638 | 0.57 | 0.608 | 0.552 | 0.626 | 0.883 | 0.969 | 1.03 | 0.772 | 0.878 | 0.902 | 0.917 | 0.88 | 0.906 | 0.827
NCI-H358 | 0.846 | 0.753 | 0.778 | 0.467 | 0.79 | 0.517 | 0.6 | 0.473 | 0.375 | 0.417 | 0.792 | 0.721 | 0.752 | 0.551 | 0.663 | 0.896 | 0.906 | 0.835 | 0.63 | 0.721
NCI-H460 | 0.752 | 0.639 | 0.845 | 0.574 | 0.694 | 0.872 | 1.03 | 1.03 | 1.07 | 1.11 | 0.796 | 0.788 | 0.936 | 0.741 | 0.72 | 0.536 | 0.458 | 0.514 | 0.327 | 0.568
NCI-H520 | 0.293 | 0.3 | 0.303 | 0.189 | 0.28 | 0.913 | 0.983 | 0.981 | 0.775 | 0.968 | 1.04 | 0.959 | 0.979 | 0.753 | 1.04 | 1.05 | 1.08 | 0.959 | 0.732 | 0.922
NCI-H596 | 0.803 | 0.841 | 0.643 |  | 0.647 | 0.841 | 1.13 | 1.05 | 0.886 | 1.08 | 1.24 | 1.09 | 0.961 | 0.931 | 1.12 | 0.6 | 0.501 | 0.455 | 0.427 | 0.516
NCI-H647 | 0.784 | 0.657 | 0.673 | 0.668 | 0.714 | 0.919 | 1.18 | 1.06 | 0.955 | 1.3 | 1.17 | 1.19 | 1.12 | 1.14 | 1.2 | 1.19 | 1.16 | 1.24 | 1.06 | 1.13
NCI-H650 | 0.509 | 0.59 | 0.462 | 0.443 | 0.475 | 0.922 | 1.07 | 1.17 | 0.859 | 1.05 | 0.906 | 0.867 | 0.992 | 0.883 | 0.895 | 1.15 | 0.956 | 1.15 | 0.855 | 1.26
